Reference: PubChem BioAssay AID504313 (Emory University Molecular Libraries Screening Center, 2011)
Calls of active or inactive are those of the source. How the calls were made is not given here.

What follows are compounds tested against X-box-binding protein 1 (Homo sapiens) (UniProt P17861) (assay: inhibitors of XBP1 reporter signal, dose response, counter-screen, cell-based (AID 504313;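 further: CHO cells carrying an XBP1 reporter stimulated with tunicamycin; potency is for inhibition of the tunicamycin-induced reporter signal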)). Settings: XBP1 reporter cell assay, percent of control.

| Compound | IC50 |
| --- | --- |
| O=C(CCl)Nc1ccc(Sc2ccc(NC(=O)CCl)cc2)cc1 | 4.37 µM |
| Cc1cccc(C(=O)c2cnc3ccccc3c2-c2ccccc2)c1 | > 10 µM (inactive) |
| CCSc1nc2ccccc2n1C(=O)/C=C\c1ccc(OC)c(OC)c1 | 4.66 µM |
| CCOC(=O)CCS(=O)(=O)c1nc(-c2ccccc2)cc(C(F)(F)F)n1 | inactive |
| CCOc1cc(/C=N/NC(=O)COc2cccc(C)c2)ccc1OC(=O)c1cccs1 | > 10 µM (inactive) |
| O=C(NC(c1ccccc1)c1cc(Cl)c2cccnc2c1O)c1cccnc1 (stereo not given) | inactive |
| Cc1ccc(NC(=O)O/N=C/c2c(C)nn(C(C)(C)C)c2C)cc1Cl | < 0.16 µM |
| O=C(NCCNC(=O)c1cc(OCC(F)(F)F)ccc1OCC(F)(F)F)Nc1cccc(C(F)(F)F)c1 | > 10 µM (inactive) |
| Cc1ccc(N2C(=O)NC(=O)/C(=C\C=C\c3ccco3)C2=O)cc1C | > 10 µM (inactive) |
| COc1cccc(-n2nnnc2S(C)(=O)=O)c1 | inactive |
| C=C(C)COc1ccc(-c2n[nH]c(C)c2Oc2ccccc2OC)c(O)c1 | inactive |
| Nc1ccc2c(c1)C(=O)C(=O)c1ccccc1-2 | inactive |
| Cc1ccc(-c2nc(-c3ccccn3)no2)cc1 | inactive |
| CC(C)(C)OC(=O)N[C@@H](Cc1ccccc1)c1nnc(S(=O)(=O)Cc2ccccc2)o1 | inactive |
| Cc1cccc(/C=N/Nc2ccc3ccccc3n2)c1 | inactive |
| C=CCc1cccc(/C=N/NC(=O)CCCNc2ccc(C)cc2)c1O | inactive |
| Cn1c(=O)[nH]c(=O)c2[nH]c(N(Cc3ccccc3)Cc3ccccc3)nc21 | > 10 µM (inactive) |
| Cc1cc(/C=N/n2cnnc2)c(C)n1-c1ccc(OCc2ccc(Cl)cc2Cl)cc1 | 0.35 µM |
| O=C(COc1ccc(Cl)cc1Cl)NCCC1=CCCCC1 | 4.23 µM |
| COc1cc(/C=C/C(=O)OC2CC3CCC2(C)C3(C)C)ccc1O (stereo not given) | > 10 µM (inactive) |
| Cc1cc(/C=c2/sc3nc4ccccc4n3c2=O)c(C)n1-c1ccccn1 | < 0.16 µM |
| CC1=CC2/C=C(\C)CCC(O)C(O)/C=C/C(=O)C23C(=O)NC(CC(C)C)C3C1C (stereo not given) | inactive |
| CCOC(=O)COc1ccccc1/C=C\[N+](=O)[O-] | inactive |
| CC(C)(C)C(=O)Nc1ccc(-c2nc3ccccc3c(=O)o2)cc1 | 1.2 µM |
| CCSc1nc2ccccc2n1C(=O)/C=C/c1ccc(OC)c(OC)c1 | 4.84 µM |

| Compound | IC50 |
| --- | --- |
| Cc1nn(-c2ccccc2)c(Cl)c1CN(C(=O)CCl)c1ccc(Cl)cc1 | 3.3 µM |
| CC(C)COc1ccc(/C(=N/O)c2ccccc2)cc1 | inactive |
| O=C(Nc1ccc([N+](=O)[O-])cc1)Nc1nc(-c2ccc(Cl)s2)cs1 | 2.53 µM |
| Cc1ccc(/C=C2\SC(=S)N(CCCC(=O)Nc3ccccn3)C2=O)cc1 | < 0.16 µM |
| O=C(COCC(=O)Nc1cccc(C(F)(F)F)c1)Nc1cccc(C(F)(F)F)c1 | inactive |
| Cc1ccc(NC(=O)CSc2nc3ccccc3c3nc(CCc4c(C)n[nH]c4C)nn23)cc1F | > 10 µM (inactive) |
| CCOc1cccc(CN2CCN(c3cccc(C(F)(F)F)c3)CC2)c1O | > 10 µM (inactive) |
| CC1CCC(C(C)C)C(OCC(O)CN2CCN(Cc3ccccc3)CC2)C1 (stereo not given) | > 10 µM (inactive) |
| O=c1[nH]c(=O)n(Cc2ccco2)c2c1C(C(F)(F)F)(C(F)(F)F)N=C(c1ccc(F)cc1)N2 | > 10 µM (inactive) |
| OC1(c2cccc(C(F)(F)F)c2)CCN(c2ncnc3c2[nH]c2ccc(F)cc23)CC1 | 3.86 µM |
| O=S(=O)(Nc1cc(Sc2cccc3cccnc23)c(O)c2ccccc12)c1ccc(F)cc1 | 4.63 µM |
| Cc1cc(/C=N/n2cnnc2)c(C)n1-c1ccc(OCc2ccc(Cl)cc2)cc1 | 0.56 µM |
| CC(=O)C(C(C)=O)c1c(Cl)c(O)c(O)c2c(C(=O)c3ccccc3)coc12 | inactive |
| OC(CNCCc1ccc(C(F)(F)F)cc1)COc1cccc2ccccc12 (stereo not given) | < 0.16 µM (inactive) |
| CCC(C)(C)c1ccc(Oc2ccc(N)cc2)cc1 | < 0.16 µM |
| O=C(/C=C/c1cccc(C(F)(F)F)c1)Nc1cccc(C(F)(F)F)c1 | inactive |
| NC(=S)n1[nH]c(-c2ccc([N+](=O)[O-])cc2)c(N=Nc2ccc(Cl)cc2)c1=O | inactive |
| CCOc1ccc(C2C=C(c3ccc(C)cc3)Nc3nnnn32)cc1 (stereo not given) | > 10 µM (inactive) |
| Cc1ccc(C)c(OCc2ccc(C(=O)N3N=C(C(F)F)CC3(O)C(F)F)o2)c1 (stereo not given) | inactive |
| O=C(Nc1ccc(F)cc1)Nc1ccc(N2CCCC2)c(S(=O)(=O)Nc2ccccc2Cl)c1 | inactive |
| Cc1ccc(-c2nc(N)sc2-c2ccc(C)cc2)cc1 | > 10 µM (inactive) |
| COc1ccc(-c2nn(-c3ccccc3)cc2/C=N/N2C(=O)CSC2=S)cc1 | > 10 µM (inactive) |
| Cc1ccc(C(=O)CC(=O)c2cc(Cl)ccc2O)cc1 | inactive |
| FC(F)(F)c1cc(-c2cccs2)nc(-n2cc(Br)cn2)n1 | > 10 µM (inactive) |
| O=C(CCCOc1ccc(Cl)cc1Cl)N/N=C\C1CCCCC1 | inactive |
